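Results reflect a 48-hour exposure of cells in 96-well plates to compound at five concentrations. TGI: concentration producing complete growth inhibition.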
Columns and labels:
Assay in all cases: NCI-60 cell line screen, 48 h
SF-295 CNS = system: SF-295 CNS
SF-539 CNS = system: SF-539 CNS
DMS 114 small cell lung = system: DMS 114 small cell lung
EKVX NSCLC = system: EKVX NSCLC
SR leukemia = system: SR leukemia
SN12C renal = system: SN12C renal
OVCAR-5 ovarian = system: OVCAR-5 ovarian
HCC-2998 colon = system: HCC-2998 colon
NCI-H23 lung = system: NCI-H23 lung
KM12 colon = system: KM12 colon

SMILES | TGI (SF-295 CNS) [µM] | TGI (SF-539 CNS) [µM] | TGI (DMS 114 small cell lung) [µM] | TGI (EKVX NSCLC) [µM] | TGI (SR leukemia) [µM] | TGI (SN12C renal) [µM] | TGI (OVCAR-5 ovarian) [µM] | TGI (HCC-2998 colon) [µM] | TGI (NCI-H23 lung) [µM] | TGI (KM12 colon) [µM]
CC(CC(=O)Nc1ccc(NC(=O)CC(C)N=NC(N)=O)cc1)N=NC(N)=O (stereo not given) | > 100 | > 100 | 38.2 | > 100 | 48.4 | > 100 | > 100 | > 100 | > 100 | > 100
COC(=O)C(/C(=N\O)C(=O)Nc1ccc(Br)cc1)c1nc2ccccc2[nH]c1=O (stereo not given) | > 100 | 58.4 | 41.2 | > 100 | 40.5 | > 100 | > 100 | > 100 | > 100 | > 100
